The subject of one data set is MOLM-13. The experiment in a line: Cell growth inhibition, 4-day proliferation assay, MOLM-13. Type of data set: cell-based. The following applies: Homo sapiens.
A short description of data set [1]: Plasma exposure after oral gavage in mice, LC-MS/MS. The class given is in vivo. The settings on record: mouse, in vivo, po, 25 mg/kg. How it is done: For a number of representative compounds in Table 5, their plasma exposures with oral administration in mice via oral gavage were determined by LC-MS/MS, with the data shown in Table 9.
In another data set the test system is MDA-MB-231. The experiment in a line: Cell growth inhibition, 4-day proliferation assay, MDA-MB-231. Type of data set: cell-based. The settings on record: Homo sapiens. The procedure, abridged: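 Cells seeded at 3,000-10,000/well, treated with serially diluted compounds 4 days at 37 °C, 5% CO2. Viability by WST-8 (10% v/v, 1-2 h, A450); readings normalized to DMSO-treated cells, IC50 by four-parameter nonlinear regression.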

A further data set addresses T1, recombinant BRD4 BD2 (Homo sapiens, UniProt O60885).
T1 construct: for recombinant BRD4 BD1 and BRD4 BD2 proteins
The experiment in a line: Competitive fluorescence-polarization (FP) binding assay, BRD4 BD2. How it is done: (§1) Fluorescence Polarization (FP) competitive binding studies were carried out using a FAM labeled fluorescent probe, see, e.g., Cpd. No. 350 of US 2014/0256706, to determine binding affinities of representative Compounds of the Disclosure for recombinant BRD4 BD1 and BRD4 BD2 proteins. Equilibrium dissociation constants (Kd) values of the fluorescent probe to BRD4 BD1 and BD2 proteins were determined from protein saturation experiments by monitoring the total fluorescence polarization of mixtures composed with the fluorescent probe at a fixed concentration and proteins with increasing concentrations up to full saturation. Serial dilutions of testing proteins were mixed with the fluorescent probe to a final volume of 200 μl in the assay buffer (100 mM phosphate buffer, pH=6.5, 0.01% Triton X-100 (Sigma, 282103) being added right before assays). Final fluorescent probe concentration was 1.5 nM for both proteins. Plates were incubated at room temperature for 30 minutes with gentle shaking to assure equilibrium. FP values in millipolarization units (mP) were measured using the Infinite M-1000 plate reader (Tecan U.S., Research Triangle Park, N.C.) in Microfluor 1 96-well, black, round-bottom plates (Thermo Scientific, Waltham, Mass.) at an excitation wavelength of 485 nm and an emission wavelength of 530 nm. Kd values of the fluorescent probe, which were calculated by fitting the sigmoidal dose-dependent FP increases as a function of protein concentrations using Graphpad Prism 6.0 software (Graphpad Software, San Diego, Calif.), are 5.5 and 3.0 nM to BDR4 BD1 and 2, respectively.
(§2) The IC50 and Ki values of compounds were determined in a competitive binding experiment. See US 2014/0256706. Mixtures of 10 μl of the tested compounds in assay buffer with 40% Ethylene Glycol and 190 μl of preincubated protein/probe complex solution in the assay buffer (100 mM potassium phosphate, pH 6.5, 0.01% Triton X-100) were added into assay plates which were incubated at room temperature for 30 minutes with gentle shaking. Final concentrations of proteins were 10 and 6 nM in assays for BRD4 BD1 and BD2, respectively. Final probe concentration is 1.5 nM in both assays. Negative controls containing protein/probe complex only (equivalent to 0% inhibition), and positive controls containing only free probes (equivalent to 100% inhibition), were included in each assay plate. FP values were measured as described above. IC50 values were determined by nonlinear regression fitting of the competition curves. Instead of being calculated from IC50 values as described before. Ki values of competitive inhibitors were obtained directly by nonlinear regression fitting as well, based upon the Kd values of the probe to different proteins, and concentrations of the proteins and probes in the competitive assays (US 2014/0256706; Wang, FEBS Lett. 360:111 (1995); Zhang et al., Analytical Biochemistry, 331:138 (2004)).
(§3) Representative compounds in Table 5 were evaluated for their binding affinities to BRD4 BD1 and BD2 proteins using the Competitive Fluorescence-Polarization (FP) Assays described in Example 6, with the data included in Table 6.

A further data set has as its target T2, recombinant BRD4 BD1 (Homo sapiens, UniProt O60885).
T2 construct: for recombinant BRD4 BD1 and BRD4 BD2 proteins
The experiment in a line: Competitive fluorescence-polarization (FP) binding assay, BRD4 BD1. How it is done: as §1, §2, §3

The mark [2] stands for this setting: MOLM-13, WST-8 assay, Table 7, read-out: Cell growth inhibition (IC50 (nM)) MOLM-13.
[3] abbreviates: MDA-MB-231, WST-8 assay, Table 7, read-out: Cell growth inhibition (IC50 (nM)) MDA-MB-231.
[4] abbreviates: MOLM-13, 96 h, read-out: Cell IC50 (nM) MOLM13.
Setting [5] is: MDA-MB-231, 96 h, read-out: Cell IC50 (nM) MDA-MB-231.

Like-named read-outs stand apart in the source and are kept apart here.

In the case of `Cc1c(C#CC2CCOCC2)sc2c1C(c1ccc(Cl)cc1)=N[C@@H](CC(N)=O)c1nnc(C)n1-2` [Compound 152, (S)-2-(4-(4-chlorophenyl)-3,9-dimethyl-2-((tetrahydro-2H-pyran-4-yl)ethynyl)-6H-thieno[3,2-f][1,2,4]triazolo[4,3-a][1,4]diazepin-6-yl)acetamide], the IC50 in the data set on MOLM-13 (setting [2]) stood at 30 nM. Moreover, in data set [1], the concentration at 1 h worked out at 1120 ng/mL, the concentration at 3 h turned out to be 472 ng/mL and the concentration at 6 h was 231 ng/mL.

On to `Cc1c(C#Cc2cnn(C)c2)sc2c1C(c1ccc(Cl)cc1)=N[C@@H](CC(N)=O)c1nnc(C)n1-2` [Compound 166, (S)-2-(4-(4-chlorophenyl)-3,9-dimethyl-2-((1-methyl-1H-pyrazol-4-yl)ethynyl)-6H-thieno[3,2-f][1,2,4]triazolo[4,3-a][1,4]diazepin-6-yl)acetamide], for which the IC50 in the data set with MOLM-13 (setting [2]) is 28.9 nM. In data set [1], this compound showed a concentration at 1 h of 55 ng/mL, a concentration at 3 h of 30 ng/mL and a concentration at 6 h of under 1 ng/mL. The IC50 in the data set with MDA-MB-231 (setting [3]) came out at 214 ± 42.2 nM.

For the compound `CCNC(=O)C[C@@H]1N=C(c2ccc(Cl)cc2)c2c(sc(C#Cc3cnn(C)c3)c2C)-n2c(C)nnc21` [Compound 167, (S)-2-(4-(4-chlorophenyl)-3,9-dimethyl-2-((1-methyl-1H-pyrazol-4-yl)ethynyl)-6H-thieno[3,2-f][1,2,4]triazolo[4,3-a][1,4]diazepin-6-yl)-N-ethylacetamide], the IC50 in the data set on MOLM-13 (setting [2]) came out at 26.7 nM. For the same compound, in data set [1], the concentration at 1 h is 12 ng/mL, the concentration at 3 h was under 1 ng/mL and the concentration at 6 h was under 1 ng/mL. Further, the IC50 in the data set on MDA-MB-231 (setting [3]) was found to be 129 ± 40 nM.

`Cc1c(C#Cc2cncn2C)sc2c1C(c1ccc(Cl)cc1)=N[C@@H](CC(N)=O)c1nnc(C)n1-2` [Compound 168, (S)-2-(4-(4-chlorophenyl)-3,9-dimethyl-2-((1-methyl-1H-imidazol-5-yl)ethynyl)-6H-thieno[3,2-f][1,2,4]triazolo[4,3-a][1,4]diazepin-6-yl)acetamide]: the 50% inhibitory concentration (IC50) in the data set with MOLM-13 (setting [2]) is 145 nM. For the same compound, in data set [1], the concentration at 1 h was 80 ng/mL, the concentration at 3 h is 22 ng/mL and the concentration at 6 h was found to be 20 ng/mL. In the data set on MDA-MB-231 (setting [3]), the IC50 was determined as 716 ± 162 nM.

`Cc1c(C#CC2CCOCC2)sc2c1C(c1ccc(Cl)cc1)=N[C@@H](CC(=O)Nc1ccc(O)cc1)c1nnc(C)n1-2` [Compound 155, (S)-2-(4-(4-chlorophenyl)-3,9-dimethyl-2-((tetrahydro-2H-pyran-4-yl)ethynyl)-6H-thieno[3,2-f][1,2,4]triazolo[4,3-a][1,4]diazepin-6-yl)-N-(4-hydroxyphenyl)acetamide]: the IC50 in the data set on MOLM-13 (setting [2]) amounted to 69.3 nM. In data set [1], this compound returned a concentration at 1 h of 832 ng/mL, a concentration at 3 h of 127 ng/mL and a concentration at 6 h of 42 ng/mL.

On to `Cc1nnc(C[C@@H]2N=C(c3ccc(Cl)cc3)c3c(sc(C#CC4CCOCC4)c3C)-n3c(C)nnc32)s1` [Compound 151, (S)-4-(4-chlorophenyl)-3,9-dimethyl-6-((5-methyl-1,3,4-thiadiazol-2-yl)methyl)-2-((tetrahydro-2H-pyran-4-yl)ethynyl)-6H-thieno[3,2-f][1,2,4]triazolo[4,3-a][1,4]diazepine], for which, in the data set with MOLM-13 (setting [2]), the half-inhibitory concentration (IC50) was found to be 81.6 nM. Moreover, in data set [1], the concentration at 1 h came out at 451 ng/mL, the concentration at 3 h worked out at 299 ng/mL and the concentration at 6 h amounted to 115 ng/mL.

For the compound `Cc1c(C#CC2CCOCC2)sc2c1C(c1ccc(Cl)cc1)=N[C@@H](CC(=O)N1CC(F)(F)C1)c1nnc(C)n1-2` [Compound 156, (S)-2-(4-(4-chlorophenyl)-3,9-dimethyl-2-((tetrahydro-2H-pyran-4-yl)ethynyl)-6H-thieno[3,2-f][1,2,4]triazolo[4,3-a][1,4]diazepin-6-yl)-1-(3,3-difluoroazetidin-1-yl)ethan-1-one], the IC50 in the data set with MOLM-13 (setting [2]) was 36.1 nM. In data set [1], the concentration at 1 h was 805 ng/mL, the concentration at 3 h was found to be 473 ng/mL and the concentration at 6 h is 226 ng/mL.

With `CCNC(=O)C[C@@H]1N=C(c2ccc(Cl)cc2)c2c(sc(C#Cc3cncn3C)c2C)-n2c(C)nnc21` [Compound 169, (S)-2-(4-(4-chlorophenyl)-3,9-dimethyl-2-((1-methyl-1H-imidazol-5-yl)ethynyl)-6H-thieno[3,2-f][1,2,4]triazolo[4,3-a][1,4]diazepin-6-yl)-N-ethylacetamide], the concentration for half-maximal inhibition (IC50) with MOLM-13 (setting [2]) turned out to be 63.9 nM. Moreover, in data set [1], the concentration at 1 h came to 611 ng/mL, the concentration at 3 h was 29 ng/mL and the concentration at 6 h stood at 5 ng/mL. The half-maximal inhibitory concentration (IC50) in the data set with MDA-MB-231 (setting [3]) was 203 ± 57 nM.

In data set [1], `Cc1nnc(C[C@@H]2N=C(c3ccc(Cl)cc3)c3c(sc(C#CC4(C)COC4)c3C)-n3c(C)nnc32)o1` [Compound 149, (S)-2-((4-(4-chlorophenyl)-3,9-dimethyl-2-((3-methyloxetan-3-yl)ethynyl)-6H-thieno[3,2-f][1,2,4]triazolo[4,3-a][1,4]diazepin-6-yl)methyl)-5-methyl-1,3,4-oxadiazole] had a concentration at 1 h of 13000 ng/mL, a concentration at 3 h of 12800 ng/mL and a concentration at 6 h of 6640 ng/mL.

With `C#Cc1sc2c(c1C)C(c1ccc(Cl)cc1)=N[C@@H](C)c1nnc(C)n1-2` [compound 20, (S)-4-(4-chlorophenyl)-2-ethynyl-3,6,9-trimethyl-6H-thieno[3,2-f][1,2,4]triazolo[4,3-a][1,4]diazepine], the concentration for half-maximal inhibition (IC50) in the data set with MOLM-13 (setting [4]) stood at 16 nM; on recombinant BRD4 BD2, 41.1 nM; on recombinant BRD4 BD1, 103 nM.

In the case of `C#Cc1sc2c(c1C)C(c1ccc(Cl)cc1)=NCc1nnc(C)n1-2` [compound 19, 4-(4-chlorophenyl)-2-ethynyl-3,9-dimethyl-6H-thieno[3,2-f][1,2,4]triazolo[4,3-a][1,4]diazepine], the IC50 with MOLM-13 (setting [4]) turned out to be 2120 nM; on recombinant BRD4 BD2, 227 nM; on recombinant BRD4 BD1, 191 nM.

On to `Cc1c(C#CC2CCOCC2)sc2c1C(c1ccc(Cl)cc1)=N[C@@H](CC(=O)N1CCOCC1)c1nnc(C)n1-2` [Compound 154, (S)-2-(4-(4-chlorophenyl)-3,9-dimethyl-2-((tetrahydro-2H-pyran-4-yl)ethynyl)-6H-thieno[3,2-f][1,2,4]triazolo[4,3-a][1,4]diazepin-6-yl)-1-morpholinoethan-1-one], for which the IC50 with MOLM-13 (setting [2]) stood at 38.8 nM. Moreover, in data set [1], the concentration at 1 h is 1040 ng/mL, the concentration at 3 h was determined as 372 ng/mL and the concentration at 6 h came out at 220 ng/mL.

In the case of `Cc1c(C#CCN(C)C)sc2c1C(c1ccc(Cl)cc1)=N[C@@H](C)c1nnc(C)n1-2` [Cpd. No. 16, (S)-3-(4-(4-chlorophenyl)-3,6,9-trimethyl-6H-thieno[3,2-f][1,2,4]triazolo[4,3-a][1,4]diazepin-2-yl)-N,N-dimethylprop-2-yn-1-amine], the IC50 came out at 27.9 nM in the data set on MOLM-13 (setting [4]), 58.9 nM on recombinant BRD4 BD2 and 40.9 nM with MDA-MB-231 (setting [5]).

For the compound `Cc1c(C#Cc2ccc(N)nc2)sc2c1C(c1ccc(Cl)cc1)=N[C@@H](C)c1nnc(C)n1-2` [Cpd. No. 18, (S)-5-((4-(4-chlorophenyl)-3,6,9-trimethyl-6H-thieno[3,2-f][1,2,4]triazolo[4,3-a][1,4]diazepin-2-yl)ethynyl)pyridin-2-amine], the half-maximal inhibitory concentration (IC50) came out at 9.63 nM in the data set on MOLM-13 (setting [4]), 8.84 nM at recombinant BRD4 BD2 and 2.44 nM in the data set with MDA-MB-231 (setting [5]).

As a reminder, the IC50 is the concentration at which inhibition is half-maximal.

For the origin of these results see US11046709B2, “Fused 1,4-diazepines as BET bromodomain inhibitors” (THE REGENTS OF THE UNIVERSITY OF MICHIGAN, priority 2017, dated 2021).
